According to US8835377B2, “Oral delivery of peptide pharmaceutical compositions” (UGP Therapeutics, Inc., priority 2004, dated 2014):

Experiment: Pharmacokinetics after oral capsules (sCT plus Dmt-DALDA with citric acid and lauroyl carnitine), non-enteric coated or enteric coated, in fasted beagle dogs (plasma; ELISA for sCT, HPLC-MS for Dmt-DALDA)
Type: in vivo
Conditions: for AUC / Cmax: normalized to a 1 mg dose; for Tmax / Cmax: beagle, dog, plasma, oral; for plasma peptide concentration normalized to a 1 mg dose: enteric coated capsule
Procedure: A second series of tests was carried out, as noted above, using beagle dogs. […] In the experiments represented in FIGS. 2A and 2B, size 00 […] capsules were each filled with 758 mg of a powdered blend consisting of citric acid (643 mg), lauroyl carnitine (66 mg), talc (33 mg), salmon calcitonin (sCT) (13 mg) and Dmt-DALDA (2.4 mg). Half of the capsules were coated with an enteric coating solution of L30D-55, while the remaining 50% of the capsules were not coated. Four fasted dogs were each given 1 uncoated capsule, and 2 weeks later they were each given an enteric coated capsule. After administration of each capsule, samples of blood were taken at 15 minute intervals from an indwelling catheter for up to 4 hours. The blood samples were centrifuged and the resulting plasma supernatants were stored frozen at −20° C. The plasma samples were subsequently analyzed for sCT by a direct ELISA, and for Dmt-DALDA by HPLC-mass spectrometry performed as set forth in Wan, H. and Desiderio, D., Quantitation of [DMT^1] DALDA in ovine plasma by on-line liquid chromatography/quadrapole time-of-flight mass spectrometry, Rapid Communications in Mass Spectrometry, 2003; 17, 538-546, the contents of which are incorporated herein by reference.
The results summarized in FIGS. 2A and 2B as plasma peptide concentration normalized to a 1 mg dose as a function of time relative to the average Tmax, (i.e., the time at which the maximum amount of peptide was detected) indicate that both peptides, i.e., sCT and Dmt-DALDA, were detected in dogs given uncoated or enteric coated capsules. […] Table DI (below) sets forth the values upon which the curves in FIGS. 2A and 2B are based. The results are summarized in the tables as plasma peptide concentration normalized to a 1 mg dose as a function of time. Table III, moreover, provides the standard deviations for the data obtained regarding each of the test dogs, which standard deviations are also indicated in FIGS. 2A and 2B.
Table IV (below) summarizes the pharmacokinetic parameters in dogs of orally administered sCT and Dmt-DALDA when administered in non-enteric coated versus enteric coated capsules. Peptide was not detected from 1 dog in each group due to (a) Dog 3 vomiting the uncoated capsule and (b) delayed gastric emptying in Dog 2 provided with an enteric coated capsule. Cmax and AUC are as defined with regard to Table H above.

[1] = Non-Enteric Capsule, Avg (n = 3)

Compound: Cc1cc(O)cc(C)c1C[C@H](N)C(=O)N[C@H](CCCNC(=N)N)C(=O)N[C@@H](Cc1ccccc1)C(=O)N[C@@H](CCCCN)C(N)=O [Dmt-DALDA, H-2,6-dimethyltyrosine-D-Arginine-Phenylalanine-Lysine-NH2]
- AUC (Enteric Capsule, Avg (n = 3)): 1443143 pg/mL-min
- AUC (Enteric Capsule, Dog 1): 2375695 pg/mL-min
- AUC (Enteric Capsule, Dog 2 (delayed gastric emptying)): 0 pg/mL-min
- AUC (Enteric Capsule, Dog 3): 1185373 pg/mL-min
- AUC (Enteric Capsule, Dog 4): 768361 pg/mL-min
- AUC [1]: 542977 pg/mL-min
- AUC (Non-Enteric Capsule, Dog 1): 410944 pg/mL-min
- AUC (Non-Enteric Capsule, Dog 2): 707054 pg/mL-min
- AUC (Non-Enteric Capsule, Dog 3 (vomited capsule)): 0 pg/mL-min
- AUC (Non-Enteric Capsule, Dog 4): 510934 pg/mL-min
- Tmax (Enteric Capsule, Avg (n = 3)): 100 min
- Cmax (Enteric Capsule, Avg (n = 3)): 21 ng/mL
- Tmax (Enteric Capsule, Dog 1): 45 min
- Cmax (Enteric Capsule, Dog 1): 29.4 ng/mL
- Tmax (Enteric Capsule, Dog 3): 135 min
- Cmax (Enteric Capsule, Dog 3): 21.5 ng/mL
- Tmax (Enteric Capsule, Dog 4): 120 min
- Cmax (Enteric Capsule, Dog 4): 12.1 ng/mL
- Tmax [1]: 40 min
- Cmax [1]: 5.79 ng/mL
- Tmax (Non-Enteric Capsule, Dog 1): 45 min
- Cmax (Non-Enteric Capsule, Dog 1): 5.1 ng/mL
- Tmax (Non-Enteric Capsule, Dog 2): 30 min
- Cmax (Non-Enteric Capsule, Dog 2): 6.47 ng/mL
- Tmax (Non-Enteric Capsule, Dog 4): 45 min
- Cmax (Non-Enteric Capsule, Dog 4): 5.79 ng/mL
- Cmax and AUC, enteric coated capsules versus non enteric-coated capsules (dogs): significantly enhanced
- Cmax of enteric coated relative to non enteric coated (dogs): 4 fold
- amount of peptide detected in plasma, enteric coated capsules vs non-coated capsules (dogs): nearly four times as much
- time at which the maximum concentration was seen (dogs given coated capsules): 105 min
- amount of Dmt-DALDA detected relative to sCT (dogs given enteric coated capsules): nearly equal amounts
- amount of Dmt-DALDA detected relative to sCT (dogs given uncoated capsules): nearly three times as much
- time at which the maximum concentration was seen (dogs given uncoated capsules): 30 min
- plasma peptide concentration normalized to a 1 mg dose (Dog 1, 0 min): 0 pg/mL
- plasma peptide concentration normalized to a 1 mg dose (Dog 1, 15 min): 0 pg/mL
- plasma peptide concentration normalized to a 1 mg dose (Dog 1, 30 min): 0 pg/mL
- plasma peptide concentration normalized to a 1 mg dose (Dog 1, 45 min): 29440 pg/mL
- plasma peptide concentration normalized to a 1 mg dose (Dog 1, 60 min): 25224 pg/mL
- plasma peptide concentration normalized to a 1 mg dose (Dog 1, 75 min): 19768 pg/mL
- plasma peptide concentration normalized to a 1 mg dose (Dog 1, 90 min): 19021 pg/mL
- plasma peptide concentration normalized to a 1 mg dose (Dog 1, 105 min): 12324 pg/mL
- plasma peptide concentration normalized to a 1 mg dose (Dog 1, 120 min): 8108 pg/mL
- plasma peptide concentration normalized to a 1 mg dose (Dog 1, 135 min): 10714 pg/mL
- plasma peptide concentration normalized to a 1 mg dose (Dog 1, 150 min): 9349 pg/mL
- plasma peptide concentration normalized to a 1 mg dose (Dog 1, 165 min): 6743 pg/mL
- plasma peptide concentration normalized to a 1 mg dose (Dog 1, 180 min): 5502 pg/mL
- plasma peptide concentration normalized to a 1 mg dose (Dog 1, 195 min): 5008 pg/mL
- plasma peptide concentration normalized to a 1 mg dose (Dog 1, 210 min): 3021 pg/mL
- plasma peptide concentration normalized to a 1 mg dose (Dog 2 (delayed gastric emptying), 0 min): 0 pg/mL
- plasma peptide concentration normalized to a 1 mg dose (Dog 2 (delayed gastric emptying), 15 min): 0 pg/mL
- plasma peptide concentration normalized to a 1 mg dose (Dog 2 (delayed gastric emptying), 30 min): 0 pg/mL
- plasma peptide concentration normalized to a 1 mg dose (Dog 2 (delayed gastric emptying), 45 min): 0 pg/mL
- plasma peptide concentration normalized to a 1 mg dose (Dog 2 (delayed gastric emptying), 60 min): 0 pg/mL
- plasma peptide concentration normalized to a 1 mg dose (Dog 2 (delayed gastric emptying), 75 min): 0 pg/mL
- plasma peptide concentration normalized to a 1 mg dose (Dog 2 (delayed gastric emptying), 90 min): 0 pg/mL
- plasma peptide concentration normalized to a 1 mg dose (Dog 2 (delayed gastric emptying), 105 min): 0 pg/mL
- plasma peptide concentration normalized to a 1 mg dose (Dog 2 (delayed gastric emptying), 120 min): 0 pg/mL
- plasma peptide concentration normalized to a 1 mg dose (Dog 2 (delayed gastric emptying), 135 min): 0 pg/mL
- plasma peptide concentration normalized to a 1 mg dose (Dog 2 (delayed gastric emptying), 150 min): 0 pg/mL
- plasma peptide concentration normalized to a 1 mg dose (Dog 2 (delayed gastric emptying), 165 min): 0 pg/mL
- plasma peptide concentration normalized to a 1 mg dose (Dog 2 (delayed gastric emptying), 180 min): 0 pg/mL
- plasma peptide concentration normalized to a 1 mg dose (Dog 2 (delayed gastric emptying), 195 min): 0 pg/mL
- plasma peptide concentration normalized to a 1 mg dose (Dog 2 (delayed gastric emptying), 210 min): 0 pg/mL
- plasma peptide concentration normalized to a 1 mg dose (Dog 3, 0 min): 0 pg/mL
- plasma peptide concentration normalized to a 1 mg dose (Dog 3, 15 min): 0 pg/mL
- plasma peptide concentration normalized to a 1 mg dose (Dog 3, 30 min): 0 pg/mL
